From ChEMBL document CHEMBL3608252, “Dietziamides, novel tetramic acid dimers from Dietzia timorensis MZ-3 with antioxidative activity” (Bioorg Med Chem Lett, 2015)
The source made the active and inactive calls. No cut-off for these calls is given here.

Assays:
[1] = Antioxidant activity assessed as DPPH redical scavenging activity incubated for 2 hrs in dark condition; format: physicochemical
[2] = test system: Candida albicans; assay: Antimicrobial activity against Candida albicans assessed as growth inhibition at 1.25 to 10 ug/disk incubated for 1 to 2 days by disk diffusion assay; format: functional, organism-based
[3] = test system: Bacillus subtilis; assay: Antimicrobial activity against Bacillus subtilis assessed as growth inhibition at 1.25 to 10 ug/disk incubated for 1 to 2 days by disk diffusion assay; format: functional, organism-based
[4] = test system: P388; assay: Cytotoxicity against mouse P388 cells at 0.78 to 100 uM after 4 days by MTT assay; format: functional, cell-based
[5] = test system: Saccharomyces cerevisiae; assay: Antimicrobial activity against Saccharomyces cerevisiae assessed as growth inhibition at 1.25 to 10 ug/disk incubated for 1 to 2 days by disk diffusion assay; format: functional, organism-based

IC50 [1] [µM] | SMILES | growth inhibition (GI) [2] | growth inhibition (GI) [3] | Activity [4] | growth inhibition (GI) [5]
34 | C/C=C1\NC(=O)C(CC2=C(O)/C(=C/C)NC2=O)=C1O | inactive | inactive | inactive | inactive
13 | O=C1O[C@H]([C@@H](O)CO)C(O)=C1O [ASCORBIC ACID] | – | – | – | –
37 | C/C=C1\NC(=O)C(C(C2=C(O)/C(=C/C)NC2=O)[C@H](O)CO)=C1O (stereo partly specified) | inactive | inactive | inactive | inactive
